From ChEMBL document CHEMBL5370523, “Clinically approved small-molecule drugs for the treatment of rheumatoid arthritis” (Eur J Med Chem, 2023)

Experiments:
[1] = biological target: T1, Prostaglandin G/H synthase 2 (Homo sapiens, UniProt P35354)
T1 sequence (P35354 whole entry): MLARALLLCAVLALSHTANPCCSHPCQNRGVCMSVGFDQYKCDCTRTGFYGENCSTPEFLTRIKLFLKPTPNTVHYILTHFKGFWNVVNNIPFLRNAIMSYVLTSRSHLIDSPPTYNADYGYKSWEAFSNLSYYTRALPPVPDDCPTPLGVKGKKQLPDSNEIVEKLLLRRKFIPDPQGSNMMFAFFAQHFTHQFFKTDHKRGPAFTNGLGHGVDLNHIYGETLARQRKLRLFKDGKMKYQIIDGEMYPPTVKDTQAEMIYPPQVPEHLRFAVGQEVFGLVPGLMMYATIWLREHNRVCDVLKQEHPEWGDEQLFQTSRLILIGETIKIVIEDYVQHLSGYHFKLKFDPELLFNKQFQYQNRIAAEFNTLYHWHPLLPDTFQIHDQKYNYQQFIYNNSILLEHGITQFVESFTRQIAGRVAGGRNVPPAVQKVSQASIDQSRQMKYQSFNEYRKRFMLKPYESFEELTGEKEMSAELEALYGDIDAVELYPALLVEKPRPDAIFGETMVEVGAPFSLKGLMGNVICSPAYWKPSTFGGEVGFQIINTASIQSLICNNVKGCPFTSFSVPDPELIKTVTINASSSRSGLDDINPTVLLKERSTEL

[2] = biological target: Prostaglandin G/H synthase 1 (Homo sapiens, UniProt P23219); type: tissue-based, Blood
Sequence of Prostaglandin G/H synthase 1 (P23219 whole entry): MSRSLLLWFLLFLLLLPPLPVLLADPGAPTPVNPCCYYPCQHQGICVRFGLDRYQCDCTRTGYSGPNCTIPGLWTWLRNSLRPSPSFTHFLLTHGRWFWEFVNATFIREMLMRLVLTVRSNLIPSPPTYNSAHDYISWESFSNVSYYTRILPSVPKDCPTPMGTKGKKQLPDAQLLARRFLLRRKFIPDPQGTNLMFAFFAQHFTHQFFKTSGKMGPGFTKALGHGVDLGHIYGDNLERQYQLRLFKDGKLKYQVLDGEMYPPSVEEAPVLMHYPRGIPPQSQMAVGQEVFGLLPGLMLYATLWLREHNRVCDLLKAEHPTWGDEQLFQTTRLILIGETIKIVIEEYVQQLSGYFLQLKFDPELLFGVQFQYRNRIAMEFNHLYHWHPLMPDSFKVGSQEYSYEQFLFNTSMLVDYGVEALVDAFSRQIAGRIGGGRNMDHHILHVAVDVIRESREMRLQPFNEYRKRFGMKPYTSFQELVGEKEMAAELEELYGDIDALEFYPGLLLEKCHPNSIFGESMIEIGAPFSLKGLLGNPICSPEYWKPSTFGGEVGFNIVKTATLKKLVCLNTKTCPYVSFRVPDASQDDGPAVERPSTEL
Description: Inhibition of COX-1 in human whole blood preincubated for 60 mins followed by calcium ionophore A23187 addition and measured after 30 mins by radioimmunoassay

[3] = biological target: T1, Prostaglandin G/H synthase 2; type: tissue-based, Blood

O=C(O)CCc1nc(-c2ccccc2)c(-c2ccccc2)o1 [OXAPROZIN]
IC50 [1]: 36000 nM

Cc1ccc(C(=O)c2ccc(CC(=O)O)n2C)cc1 [TOLMETIN]
IC50 [2]: 350 nM | IC50 [3]: 820 nM
